What was measured:
MRC5 = experiment: Antiproliferative activity against human MRC5 cells after 48 to 72 hrs by MTT assay; format: cell-based
HCT-116 [1] = experiment: Antiproliferative activity against human HCT116 cells after 48 to 72 hrs by MTT assay; format: functional, cell-based
Histone deacetylase 1 [2] = molecular target: T1, Histone deacetylase 1 (Homo sapiens, UniProt Q13547); experiment: Inhibition of recombinant human HDAC1 using a fluorogenic substrate at 1 uM by fluorescence method
A549 = experiment: Antiproliferative activity against human A549 cells after 48 to 72 hrs by MTT assay; format: functional, cell-based
K562 = experiment: Antiproliferative activity against human K562 cells after 48 to 72 hrs by MTT assay; format: functional, cell-based
Histone deacetylase 1 [3] = molecular target: T1, Histone deacetylase 1; experiment: Inhibition of recombinant human HDAC1 using a fluorogenic substrate at 10 uM by fluorescence method
Histone deacetylase 1 [4] = molecular target: T1, Histone deacetylase 1; experiment: Inhibition of recombinant human HDAC1 using a fluorogenic substrate by fluorescence method
PC-3 [5] = experiment: Antiproliferative activity against human PC3 cells after 48 to 72 hrs by MTT assay; format: functional, cell-based
[6] = Oral bioavailability in Sprague-Dawley rat at 10 mg/kg administered as single dose by HPLC-MS method; format: ADME, organism-based; conditions: in vivo
HCT-116 [7] = experiment: Antitumor activity against human HCT116 cells xenografted in mouse assessed as tumor growth inhibition at 25 mg/kg, po daily for 21 days; format: functional; conditions: HCT-116, po, 504 h, read-out: TGI
[8] = Volume of distribution at steady state in Sprague-Dawley rat at 2 mg/kg, iv administered as single dose by HPLC-MS method; format: ADME, organism-based; conditions: in vivo, read-out: Vdss
[9] = AUC in Sprague-Dawley rat at 10 mg/kg, po administered as single dose by HPLC-MS method; format: ADME, organism-based; conditions: in vivo
[10] = Clearance in Sprague-Dawley rat at 2 mg/kg, iv administered as single dose by HPLC-MS method; format: ADME, organism-based; conditions: in vivo
HCT-116 [11] = experiment: Antitumor activity against human HCT116 cells xenografted in mouse assessed as tumor growth inhibition at 50 mg/kg, po daily for 21 days; format: functional; conditions: HCT-116, po, 504 h, read-out: TGI
Mus musculus [12] = experiment: Toxicity in mouse xenografted with HCT116 cells assessed as weight loss at 25 mg/kg, po daily for 21 days; format: organism-based; conditions: in vivo, 504 h
[13] = Terminal half life in Sprague-Dawley rat at 2 mg/kg, iv administered as single dose by HPLC-MS method; format: ADME, organism-based; conditions: in vivo, read-out: beta t1/2 (converted)
Mus musculus [14] = experiment: Toxicity in mouse xenografted with HCT116 cells assessed as weight loss at 50 mg/kg, po daily for 21 days; format: organism-based; conditions: in vivo, 504 h
[15] = Cmax in Sprague-Dawley rat at 10 mg/kg, po administered as single dose by HPLC-MS method; format: ADME, organism-based; set-up: dose 10 mg/kg, route oral; conditions: in vivo
[16] = molecular target: Voltage-gated inwardly rectifying potassium channel KCNH2 (Homo sapiens, UniProt Q12809); experiment: Inhibition of recombinant human ERG expressed in HEK293 cells after 9 mins by patch clamp method
[17] = Tmax in Sprague-Dawley rat at 10 mg/kg, po administered as single dose by HPLC-MS method; format: ADME, organism-based; conditions: in vivo
HCT-116 [18] = experiment: Antitumor activity against human HCT116 cells xenografted in po dosed mouse assessed as tumor growth inhibition administered daily for 21 days; format: functional, organism-based
HCT-116 [19] = experiment: Antitumor activity against human HCT116 cells xenografted in mouse assessed as tumor growth inhibition at 100 mg/kg, po daily for 21 days; format: functional; conditions: HCT-116, po, 504 h, read-out: TGI
Mus musculus [20] = experiment: Toxicity in mouse xenografted with HCT116 cells assessed as weight loss at 100 mg/kg, po daily measured for 12 days; format: organism-based; conditions: in vivo, 288 h
PC-3 [21] = experiment: Antitumor activity against human PC3 cells xenografted in nude mouse assessed as tumor growth inhibition at 100 mg/kg, ig administered 7 days per week for 3 weeks; format: functional; conditions: PC-3, po, read-out: TGI
Histone deacetylase 1 [22] = molecular target: T1, Histone deacetylase 1; experiment: Inhibition of recombinant human HDAC1 expressed in Baculovirus insect cell expression system using [3H]-metabolically labeled acetylated histone substrate after 30 mins by scintillation counting

T1 sequence (Q13547 whole entry): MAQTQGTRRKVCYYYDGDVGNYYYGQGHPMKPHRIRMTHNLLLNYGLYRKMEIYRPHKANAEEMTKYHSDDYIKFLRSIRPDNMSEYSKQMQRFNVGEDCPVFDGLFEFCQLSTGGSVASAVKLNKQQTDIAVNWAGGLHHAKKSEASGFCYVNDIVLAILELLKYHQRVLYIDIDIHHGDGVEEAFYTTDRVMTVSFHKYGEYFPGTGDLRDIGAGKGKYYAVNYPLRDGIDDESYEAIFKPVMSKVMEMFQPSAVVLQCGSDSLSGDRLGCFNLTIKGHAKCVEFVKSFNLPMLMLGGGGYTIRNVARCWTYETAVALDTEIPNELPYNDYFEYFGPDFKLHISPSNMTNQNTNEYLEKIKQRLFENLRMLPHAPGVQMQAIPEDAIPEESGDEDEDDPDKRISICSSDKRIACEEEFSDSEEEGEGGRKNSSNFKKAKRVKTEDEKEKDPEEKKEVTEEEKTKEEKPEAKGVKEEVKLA
Sequence of Voltage-gated inwardly rectifying potassium channel KCNH2 (Q12809 whole entry): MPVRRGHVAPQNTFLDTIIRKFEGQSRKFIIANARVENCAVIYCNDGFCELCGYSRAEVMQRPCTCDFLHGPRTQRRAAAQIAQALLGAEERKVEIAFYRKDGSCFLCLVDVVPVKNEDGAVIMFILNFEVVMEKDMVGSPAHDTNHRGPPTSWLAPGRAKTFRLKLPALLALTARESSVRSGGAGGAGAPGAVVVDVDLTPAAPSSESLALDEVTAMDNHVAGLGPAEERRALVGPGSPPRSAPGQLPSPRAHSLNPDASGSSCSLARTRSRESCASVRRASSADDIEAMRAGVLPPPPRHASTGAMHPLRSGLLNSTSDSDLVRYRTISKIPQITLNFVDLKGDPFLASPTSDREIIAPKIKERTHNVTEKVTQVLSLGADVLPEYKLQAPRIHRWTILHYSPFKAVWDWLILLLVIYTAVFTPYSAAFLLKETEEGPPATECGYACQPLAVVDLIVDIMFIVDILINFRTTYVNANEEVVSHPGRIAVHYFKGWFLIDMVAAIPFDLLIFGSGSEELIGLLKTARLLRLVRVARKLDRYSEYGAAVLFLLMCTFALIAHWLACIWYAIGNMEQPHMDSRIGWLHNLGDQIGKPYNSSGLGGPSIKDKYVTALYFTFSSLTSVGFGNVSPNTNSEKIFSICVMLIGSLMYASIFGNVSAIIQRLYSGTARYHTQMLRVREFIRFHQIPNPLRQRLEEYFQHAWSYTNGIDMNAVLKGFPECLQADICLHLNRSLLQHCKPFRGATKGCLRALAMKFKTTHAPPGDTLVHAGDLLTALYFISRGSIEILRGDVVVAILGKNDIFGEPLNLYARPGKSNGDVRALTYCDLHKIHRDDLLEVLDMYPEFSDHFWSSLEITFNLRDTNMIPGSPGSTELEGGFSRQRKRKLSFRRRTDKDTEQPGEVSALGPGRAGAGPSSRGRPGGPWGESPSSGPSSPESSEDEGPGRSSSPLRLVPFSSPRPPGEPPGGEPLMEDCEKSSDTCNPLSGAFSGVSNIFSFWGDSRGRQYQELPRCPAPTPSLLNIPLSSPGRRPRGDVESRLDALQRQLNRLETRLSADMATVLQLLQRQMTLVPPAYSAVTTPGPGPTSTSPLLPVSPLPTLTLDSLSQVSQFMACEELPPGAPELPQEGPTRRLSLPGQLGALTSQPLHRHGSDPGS

Nc1ccccc1NC(=O)c1ccc(N2CCN(C(=O)/C=C/c3ccc(F)cc3)CC2)cc1
IC50 (MRC5): > 30000 nM | IC50 (HCT-116 [1]): 1980 nM | inhibition (Histone deacetylase 1 [2]): 52% | IC50 (A549): 811 nM | IC50 (K562): 1100 nM | inhibition (Histone deacetylase 1 [3]): 79% | IC50 (Histone deacetylase 1 [4]): 983 nM | IC50 (PC-3 [5]): 2140 nM

Nc1ccccc1NC(=O)c1ccc(N2CCN(C(=O)/C=C/c3cccnc3)CC2)cc1
inhibition (Histone deacetylase 1 [2]): 18.1% | inhibition (Histone deacetylase 1 [3]): 53.8%

Nc1cc(F)ccc1NC(=O)c1ccc(N2CCN(C(=O)/C=C/c3ccc4c(c3)OCO4)CC2)cc1
inhibition (Histone deacetylase 1 [2]): 18% | inhibition (Histone deacetylase 1 [3]): 53.4%

Nc1ccc(F)cc1NC(=O)c1ccc(CNC(=O)/C=C/c2cccnc2)cc1
IC50 (MRC5): > 30000 nM | IC50 (HCT-116 [1]): 202 nM | inhibition (Histone deacetylase 1 [2]): 55.1% | IC50 (A549): 665 nM | IC50 (K562): 975 nM | inhibition (Histone deacetylase 1 [3]): 81.3% | IC50 (PC-3 [5]): 2090 nM

COc1ccc(/C=C/C(=O)N2CCN(c3ccc(C(=O)Nc4ccccc4N)cc3)CC2)cc1OC
inhibition (Histone deacetylase 1 [2]): 46.5% | inhibition (Histone deacetylase 1 [3]): 79.2%

Cc1ccc(/C=C/C(=O)N2CCN(c3ccc(C(=O)Nc4ccc(F)cc4N)cc3)CC2)cc1
inhibition (Histone deacetylase 1 [2]): 17.4% | inhibition (Histone deacetylase 1 [3]): 64.3%

COc1cccc(/C=C/C(=O)N2CCN(c3ccc(C(=O)Nc4ccccc4N)cc3)CC2)c1
inhibition (Histone deacetylase 1 [2]): 45.3% | inhibition (Histone deacetylase 1 [3]): 66.9%

Cc1ccc(/C=C/C(=O)N2CCN(c3ccc(C(=O)Nc4ccccc4N)cc3)CC2)cc1
IC50 (MRC5): > 30000 nM | bioavailability [6]: 36.3% | IC50 (HCT-116 [1]): 69 nM | inhibition (Histone deacetylase 1 [2]): 56.3% | inhibition in vivo at 25 mg/kg (HCT-116 [7]): 42.4% | Vd [8]: 0.11 L/kg | AUC [9]: 8910 ng·h/mL | IC50 (A549): 135 nM | IC50 (K562): 4860 nM | clearance [10]: 7.5 mL/min/kg | inhibition in vivo at 50 mg/kg (HCT-116 [11]): 55.1% | inhibition (Histone deacetylase 1 [3]): 94.2% | Activity (Mus musculus [12]): < 5% | IC50 (Histone deacetylase 1 [4]): 798 nM | half-life [13]: 64.2 min | IC50 (PC-3 [5]): 3960 nM | Activity (Mus musculus [14]): 11.3% | Cmax [15]: 2510 ng/mL | IC50 [16]: 27100 nM | Tmax [17]: 25.8 min | TGI (HCT-116 [18]): Dose-dependent effect | inhibition in vivo at 100 mg/kg (HCT-116 [19]): 76.3% | Activity (Mus musculus [20]): 19.2%

COc1cc(/C=C/C(=O)N2CCN(c3ccc(C(=O)Nc4ccccc4N)cc3)CC2)cc(OC)c1OC
inhibition (Histone deacetylase 1 [2]): 21.8% | inhibition (Histone deacetylase 1 [3]): 60.5%

Nc1ccccc1NC(=O)c1ccc(N2CCN(C(=O)/C=C/c3ccc4c(c3)OCO4)CC2)cc1
inhibition (Histone deacetylase 1 [2]): 49.6% | inhibition (Histone deacetylase 1 [3]): 75.5%

Nc1ccccc1NC(=O)c1ccc(N2CCN(C(=O)/C=C/c3ccccc3)CC2)cc1
inhibition (Histone deacetylase 1 [2]): 34.3% | inhibition (Histone deacetylase 1 [3]): 66.8%

Nc1cc(F)ccc1NC(=O)c1ccc(N2CCN(C(=O)/C=C/c3ccc(F)cc3)CC2)cc1
inhibition (Histone deacetylase 1 [2]): 36% | inhibition (Histone deacetylase 1 [3]): 58.8%

COc1ccc(/C=C/C(=O)N2CCN(c3ccc(C(=O)Nc4ccccc4N)cc3)CC2)cc1
IC50 (MRC5): > 30000 nM | IC50 (HCT-116 [1]): 765 nM | inhibition (Histone deacetylase 1 [2]): 50.2% | IC50 (A549): 530 nM | IC50 (K562): 2960 nM | inhibition (Histone deacetylase 1 [3]): 87.8% | IC50 (Histone deacetylase 1 [4]): 903 nM | IC50 (PC-3 [5]): 8710 nM | IC50 [16]: 25100 nM

COc1ccc(/C=C/C(=O)NCc2ccc(C(=O)Nc3ccncc3N)cc2)cc1
inhibition in vivo at 100 mg/kg (PC-3 [21]): 39% | IC50 (Histone deacetylase 1 [22]): 3300 nM

Nc1cc(F)ccc1NC(=O)c1ccc(N2CCN(C(=O)/C=C/c3cccnc3)CC2)cc1
inhibition (Histone deacetylase 1 [2]): 4.71% | inhibition (Histone deacetylase 1 [3]): 19.2%
